Tests used:
[1] = tested on: ADRP expression in MCF-7 cells; assay: ADRP expression in MCF-7 cells (RT-PCR); assay type: cell-based, human; conditions: for increase of ADRP level over the endogenous level: treatment of cells, depends on length of treatment
Source text: Ciglitazone is known to bind and activate the nuclear receptor PPAR gamma, which has been shown in MCF-7 to stimulate expression of beta casein (Mueller et al., 1998).
It is known that estradiol plays a dual role in mammary epithelial cells as a stimulator of proliferation and also as a differentiation factor at different times of the developmental stages of mammary gland development (Kumar et al, 2000).
A specific siRNA against human ADRP mRNA (hADRP-siRNA) was designed using the sequence between +225 to +244 of human ADRP as a target. A control siRNA was designed using a portion of the green fluorescence protein gene. Twenty-one-oligonucleotide RNA for hADRP (rArUrU rGrCrA rGrUrU rGrCrC rArArU rArCrC rUTT and rArGrG rUrArU rUrGrG rCrArA rCrUrG rCrArA rUTT) with 3′dTdT overhangs, and for GFP (rGrGrC rUrArC rGrUrC rCrArG rGrArG rCrGrC rArCrC and rUrGrC rGrCrU rCrCrU rGrGrA rCrGrU rArGrC rCrUrU) were synthesized (Integrated DNA Technologies, Inc., Coralville, Iowa). Transfection of siRNA duplex was performed in MCF-7 cells using LipofectAMINE 2000 reagents as described by the manufacturer (Invitrogen, Carlsbad, Calif.). MCF-7 EV grown to 50% confluency in 6-well plates were transfected with 100 pmole of siRNA per well in serum free-DMEM/F12. After 5 h, the medium was replaced with DMEM/F12 containing 5% FBS. Control MCF-7 cells were treated with GFP siRNA. The cells were then treated with 50 μM (50 micromolars) ciglitazone. After 48 h of incubation, RNA samples were collected by Trizol method to measure human ADRP expression and beta casein expression by RT-PCR as described above.

EV MCF-7 cells = assay: proliferation assay, EV MCF-7 control cells; assay type: cell-based, human; conditions: estradiol 10^−9 M, insulin 10 microgramsg/ml, EGF 25 ng/ml in medium
Description: For proliferation assay, the cells were seeded at a density of 5×10^4 cells in phenol red-free α-MEM (PFME) supplemented with 5% of charcoal extracted fetal bovine serum (CHX-FBS) in 6-well culture plates (Costar). Cells were treated with 1 nM 17β-estradiol alone. Control cells were treated with vehicle alone (0.01% DMSO). Cell numbers were counted by hemacytometer every two days. Medium was changed at day 4. Each time point was performed in triplicate. Specifically, the medium contained estradiol (E2 at 10^−9 M), insulin (10 microgramsg/ml) and epidermal growth factor (EGF at 25 ng/ml).

[2] = tested on: ADRP overexpressing cells (MCF7-C4); assay: proliferation assay, ADRP overexpressing MCF-7 cells; assay type: cell-based, human; conditions: estradiol 10^−9 M, insulin 10 microgramsg/ml, EGF 25 ng/ml in medium
Description: The vector used to over-express ADRP in MCF-7 cells is the ADRP-pcDNA3 vector described in Gao and Serrero, 1999. The G418 resistance gene was used as selectable marker. MCF-7 cells were transfected with the ADRP-pcDNA3 plasmid, using the lipofectamine method. Specifically, MCF-7 cells (WT) were plated onto 60-mm dish at the concentration of 2×10^5 cell per plate in 5% fetal bovine serum (FBS) in DMEM/F12 (1:1 mixture of Dulbecco's modified Eagle's medium and Ham' nutrient F12 medium) overnight before transfection. Cells were washed once with serum-free DMEM/F12 (without antibiotic). The lipofectamine method was used for the transfection. Specifically, 2 μg mouse ADRP pcDNA3 construct was used. Transfection was carried on according to manufacturer's recommendations, with 15 μl of lipofectamine and 5 hours of incubation. After transfection, the medium was replaced with 5% FBS DMEM/F12 and the cells were incubated overnight. G418 at the concentration of 800 μg/ml was added the day after for selection. Cells were selected with this medium for 3 weeks. Six clones were isolated and subjected to RT-PCR to determine the existence of the transfection construct. For proliferation assay, the cells were seeded at a density of 5×10^4 cells in phenol red-free α-MEM (PFME) supplemented with 5% of charcoal extracted fetal bovine serum (CHX-FBS) in 6-well culture plates (Costar). Cells were treated with 1 nM 17β-estradiol alone. Control cells were treated with vehicle alone (0.01% DMSO). Cell numbers were counted by hemacytometer every two days. Medium was changed at day 4. Each time point was performed in triplicate. Specifically, the medium contained estradiol (E2 at 10^−9 M), insulin (10 microgramsg/ml) and epidermal growth factor (EGF at 25 ng/ml).

[3] = tested on: ADRP expression in adipocytes; conditions: cited from earlier work

Q: With `CC1(COc2ccc(CC3SC(=O)NC3=O)cc2)CCCCC1` (centres unmarked) [ciglitazone] as the compound, how does the “increase of ADRP level over the endogenous level” value [1] read?
A: The value was “over 10 fold”.

Q: For `C[C@]12CC[C@@H]3c4ccc(O)cc4CC[C@H]3[C@@H]1CC[C@@H]2O` [estradiol, 17β-estradiol, reference compound], which “proliferation of EV MCF-7 cells (control)” value (EV MCF-7 cells) is on record?
A: The value was “stimulated the proliferation”.

Q: What about the ADRP expression ([1]; MCF-7 cells, FIG. 7) of the same compound?
A: Its ADRP expression is “stimulates ADRP expression”.

Q: What about the “increase of ADRP level over the endogenous level” value [1] of the same compound?
A: The value was 2-3 fold.

Q: And the “proliferation of ADRP overexpressing cells” value [2]?
A: The value was “no effect”.

Q: Which “ADRP expression in adipocytes” value [3] does the source give for `CC(C)Cc1ccc(C(C)C(=O)O)cc1` (centres unmarked) [ibuprofen] here?
A: The value was “stimulated”.

Q: Which “ADRP expression in adipocytes” value [3] does the source give for `COc1ccc2c(c1)c(CC(=O)O)c(C)n2C(=O)c1ccc(Cl)cc1` [indomethacin] here?
A: The value was “stimulated”.

Q: What does the source list for “epidermal growth factor: growth factor known to stimulate the proliferation of mammary epithelial cells”?
A: proliferation of EV MCF-7 cells (control) (EV MCF-7 cells): stimulated the proliferation; proliferation of ADRP overexpressing cells [2]: no effect

Q: What does the source list for “insulin: hormone known to stimulate the proliferation of mammary epithelial cells”?
A: proliferation of EV MCF-7 cells (control) (EV MCF-7 cells): stimulated the proliferation; proliferation of ADRP overexpressing cells [2]: no effect

From patent publication US20060210568A1, “Methods and compositions for cancer treatment” (priority 2003, published 2006)
